Source: patent US5837718A, “Imidazole-derivatives having agonistic or antagonistic activity on the histamine H3-receptor” (Seed Capital Investment (SCI) B.V., priority 1995, dated 1998)

These molecules were tested against T1, histamine H3 -receptor (Cavia porcellus, UniProt Q9JI35) (assay: Antagonistic activity on the H3-receptor, ileum guinea pig). Conditions: not given.
T1 construct: ileum guinea pig; from tissue; host or cells: guinea pig ileum
Assay type: cell-based
Protocol: (§1) The agonistics and antagonistics activities on the H3 -receptor of the various compounds were determined compared to histamine. The test methods used therefor are described in Van der Werf et al., Agents and Actions 20, 3/4 (1987) p. 239-243 and Menkveld et al., European Journal of Pharmacology, 186 (1990) p. 343-347.

T1 sequence (Q9JI35 whole entry): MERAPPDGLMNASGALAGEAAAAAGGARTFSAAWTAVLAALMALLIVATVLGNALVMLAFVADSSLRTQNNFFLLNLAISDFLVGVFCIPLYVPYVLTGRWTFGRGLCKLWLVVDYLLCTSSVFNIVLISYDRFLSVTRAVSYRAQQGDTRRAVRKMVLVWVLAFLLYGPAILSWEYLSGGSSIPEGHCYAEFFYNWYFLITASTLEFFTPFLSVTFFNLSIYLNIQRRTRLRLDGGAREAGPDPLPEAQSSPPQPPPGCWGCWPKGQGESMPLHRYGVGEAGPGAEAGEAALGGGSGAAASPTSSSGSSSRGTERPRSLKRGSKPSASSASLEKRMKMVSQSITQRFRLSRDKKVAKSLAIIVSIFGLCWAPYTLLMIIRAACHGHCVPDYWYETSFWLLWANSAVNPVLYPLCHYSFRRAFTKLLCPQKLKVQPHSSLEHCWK

In order of falling Kb:
1. N=C(NCCSCc1ccccc1)SCCc1c[nH]cn1 [VUF 8404]  39.8 nM
2. N=C(NCCCc1ccccc1)SCCc1c[nH]cn1 [VUF 9030]  25.1 nM
3. N=C(NCCCCc1ccccc1)SCCc1c[nH]cn1 [VUF 9031]  20 nM
4. N=C(NCc1ccccc1)SCCc1c[nH]cn1 [VUF 9028, N-benzyl-S-[2-(imidazol-4-yl)ethyl]isothiourea dipicrate]  15.8 nM
5. CN=C(NCCc1ccccc1)SCCc1c[nH]cn1 [VUF 9051]  15.8 nM
6. N=C(NCCc1ccccc1)SCCc1c[nH]cn1 [VUF 9029, S-[2-(imidazol-4-yl)ethyl]-N-(2-phenylethyl)-isothiourea]  10 nM
7. N=C(NCCCc1ccccc1)SCCCc1c[nH]cn1 [VUF 9152, S-[3-(4(5)-imidazolyl)propyl]-N-(3-phenylpropyl)isothiourea]  5.01 nM
8. N=C(NCc1ccccc1)SCCCc1c[nH]cn1 [VUF 9107, N-benzyl-S-[3-(4(5)-imidazolyl)propyl]isothiourea]  1.58 nM
9. N=C(NCCc1ccccc1)SCCCc1c[nH]cn1 [VUF 9151, S-[3-(4(5)-imidazolyl)propyl]-N-(2-phenylethyl)isothiourea]  1.58 nM
10. NC(=NCc1ccc(Cl)cc1)SCCCc1cnc[nH]1 [VUF 9153, S-[3-(4(5)-imidazolyl)propyl]-N-(4-chlorobenzyl)isothiourea]  0.126 nM

Same assay, conditions: Table 2, antagonistic activity, ileum guinea pig; read-out: pA2 (converted)

In order of falling Kb:
1. N=C(NCCc1c[nH]cn1)Nc1ccccc1 [VUF 9006, N-[2-(imidazol-4-yl)ethyl]-N'-phenyl guanidine dipicrate]  1580 nM
2. N=C(NCCc1ccccc1)NCCc1cnc[nH]1 [VUF 9007, N-[2-(imidazol-4-yl)ethyl]-N'-phenyl-ethylguanidine dipicrate]  501 nM
3. N=C(NCCSC(c1ccccc1)c1ccccc1)SCCc1c[nH]cn1 [VUF 8409]  251 nM
4. N=C(NCCCc1c[nH]cn1)NCCSCc1ccccc1 [VUF 8405]  12.6 nM
5. NC(=NCCCCc1ccccc1)SCCCc1cnc[nH]1 [VUF 4571, S-[3-(4(5)-imidazolyl)propyl]-N-(4-phenylbutyl)isothiourea]  3.98 nM
6. N=C(NCCSCc1ccccc1)SCCCc1c[nH]cn1 [VUF 8414, N-[2-(benzylthio)ethyl]-S-[3-(imidazol-4-yl)propyl]isothiourea]  2.51 nM
7. N=C(NCC1CCCCC1)SCCCc1c[nH]cn1 [VUF 9163, N-cyclohexylmethyl-S-[3-(4(5)-imidazolyl)propyl]isothiourea]  1.58 nM

The molecules below were run against T2, histamine H3 -receptor (Rattus norvegicus, UniProt Q9QYN8) (assay: Antagonistic activity on the H3-receptor, rat cortex). Conditions: Table 2, antagonistic activity, read-out: pA2 (converted).
T2 construct: Van der Werf et al., Agents and Actions 20, 3/4 (1987) p; 239-243; from tissue
Assay type: cell-based
Protocol: as §1

T2 sequence (Q9QYN8 whole entry): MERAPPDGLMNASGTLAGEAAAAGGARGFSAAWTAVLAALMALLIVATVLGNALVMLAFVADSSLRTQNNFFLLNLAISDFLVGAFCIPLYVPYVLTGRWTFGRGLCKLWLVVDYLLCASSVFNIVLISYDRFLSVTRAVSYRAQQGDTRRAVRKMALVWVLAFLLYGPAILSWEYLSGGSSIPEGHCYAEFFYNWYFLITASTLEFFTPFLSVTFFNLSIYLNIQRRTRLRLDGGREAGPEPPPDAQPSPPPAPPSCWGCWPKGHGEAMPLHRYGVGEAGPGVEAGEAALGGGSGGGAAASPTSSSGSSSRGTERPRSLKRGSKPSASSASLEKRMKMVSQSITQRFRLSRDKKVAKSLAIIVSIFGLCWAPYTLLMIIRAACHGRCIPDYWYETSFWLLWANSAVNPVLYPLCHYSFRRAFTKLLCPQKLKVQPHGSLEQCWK

With `N=C(Nc1ccccc1)SCCc1c[nH]cn1` [VUF 8397] the Kb was 100 nM.

Each molecule was assayed against T2, histamine H3 -receptor (assay: Agonistic activity on the H3-receptor, rat cortex). Conditions: Table 3, agonistic activity, read-out: pD2 (converted).
Assay type: cell-based
Protocol: (§2) The agonistics and antagonistics activities on the H3 -receptor of the various compounds were determined compared to histamine.

For `N=C(N)NCCc1c[nH]cn1` [VUF 83100], the EC50 was 39.8 nM.

What follows are molecules tested against T1, histamine H3 -receptor (assay: Agonistic activity on the H3-receptor, ileum guinea pig). Conditions: Table 3, agonistic activity, read-out: pD2 (converted).
Assay type: cell-based
Protocol: as §2

In order of rising EC50:
1. N=C(N)SCCc1c[nH]cn1 [VUF 8325, S-[2-(4-imidazolyl)ethyl]isothiourea]  7.94 nM
2. CNC(=N)SCCc1c[nH]cn1 [VUF 8621]  50.1 nM

These molecules were tested on histamine H3 -receptor (assay: Antagonistic activity on the H3-receptor, test preparation not stated). Conditions: Example 6 table, test method not stated.
Assay type: cell-based
Protocol: as §1

In order of falling pA2:
1. N=C(NCc1ccc(Br)cc1)SCCCc1c[nH]cn1 [VUF 4651, N-(4-bromobenzyl)-S-[3-(4(5)-imidazolyl)propyl]isothiourea.2HBr]  9.77
2. COc1ccc(CNC(=N)SCCCc2c[nH]cn2)cc1 [VUF 4654]  9.39
3. N=C(NCc1ccc(F)cc1)SCCCc1c[nH]cn1 [VUF 4650, N-(4-fluorobenzyl)-S-[3-(4(5)-imidazolyl)propyl]isothiourea.2HBr]  9.38
4. Cc1ccc(CNC(=N)SCCCc2c[nH]cn2)cc1 [VUF 4653, S-[3-(4(5)-imidazolyl)propyl]-N-(4-methylbenzyl) isothiourea.2HBr]  9.36
5. N=C(NCc1ccc(I)cc1)SCCCc1c[nH]cn1 [VUF 4652, N-(4-iodobenzyl)-S-[3-(4(5)-imidazolyl)propyl]isothiourea.2HBr]  9.21
6. N=C(NCCc1ccc(Cl)cc1)SCCCc1c[nH]cn1 [VUF 4657]  9.2
7. N=C(NCCc1ccc(Br)cc1)SCCCc1c[nH]cn1 [VUF 4598, N-[2-(4-bromophenyl)ethyl]-S-[3-(4(5)-imidazolyl)propyl] isothiourea.2HBr]  9.0
8. N=C(NCc1ccc(Cl)c(Cl)c1)SCCCc1c[nH]cn1 [VUF 4656, N-(3,4-dichlorobenzyl)-S-[3-(4(5)-imidazolyl)propyl] isothiourea.2HBr]  8.96
9. N=C(NCc1ccccc1)SCCCCc1c[nH]cn1 [VUF 4661, N-benzyl-S-[4-(4(5)-imidazolyl)butyl]isothiourea dipicrate]  8.72
10. Cc1ccc(CCNC(=N)SCCCc2c[nH]cn2)cc1 [VUF 4658, S-[3-(4(5)-imidazolyl)propyl]-N-[2-(4-methylphenyl)ethyl]isothiourea.2HBr]  8.4
11. COc1ccc(CCNC(=N)SCCCc2c[nH]cn2)cc1 [VUF 4659]  8.3
12. N=C(NCCc1ccccc1)SCCCCc1c[nH]cn1 [VUF 4662, N-(2-phenylethyl)-S-[4-(4(5)-imidazolyl)butyl]isothiourea dipicrate]  8.13

Each molecule was assayed on histamine H3 -receptor (assay: Agonistic activity on the H3-receptor, test preparation not stated). Conditions: in words.
Assay type: cell-based
Protocol: as §1

In the case of `N=C(N)SCCc1c[nH]cn1` [VUF 8325, S-[2-(4-imidazolyl)ethyl]isothiourea], the agonistic activity is reported as “strong agonistic activity”.
